For 28 compounds, IC50 results are on record in patent publication US20250092065A1, “2-(INDAZOL-5-YL)-6-(PIPERIDIN-4-YL)-1,7-NAPHTHYRIDINE DERIVATIVES AND RELATED COMPOUNDS AS MODULATORS FOR SPLICING NUCLEIC ACIDS AND FOR THE TREATMENT OF PROLIFERATIVE DISEASES” (REMIX THERAPEUTICS INC., priority 2022, published 2025).

Counter-ions that a name gives are not always drawn.

Assay [1] relates to Target C. Kind of assay: RT-qPCR canonical junction panel assay, Target C mRNA. It counts as cell-based. To be noted: Table 4, read-out: Target C IC50 (decrease in CJ mRNA levels). A digest of the protocol:
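A673 or K562 cells treated with compound; CJ mRNA quantified by junction-spanning RT-qPCR probe after cDNA synthesis, normalised to GAPDH, GUSB or PPIA and DMSO (2^−ΔΔCt), scaled to set ΔCt assay window; IC50 from 4-parameter fit of CJ decrease.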
A general note: Quantitative PCR measures a nucleic acid by following its amplification.

The subject of assay [2] is Target C. Briefly: HiBiT protein abundance assay, Target C (K562 HiBiT knock-in). The following applies: HiBiT knock-in K562 cells, 24 hours, top dose 10 μM. It counts as cell-based, human. In outline:
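K562 HiBiT knock-in cells (10000/well) were treated 24 h at 37° C with a 10-point 3-fold dilution series (top 10 μM final, ≤0.25% DMSO). HiBiT luminescence was read after lytic LgBiT detection. Percent response used unmodified K562 and DMSO-treated knock-in controls, and IC50 came from a four-parameter fit at 50% of untreated.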
In general terms: The HiBiT peptide binds its large partner to form an active luciferase.

With `Cc1c(O)c(-c2nc(C(N)=O)c3cc(N4CCNCC4)ccc3n2)cc2cn(C)nc12` [Compound 523, 2-(6-hydroxy-2,7-dimethylindazol-5-yl)-6-(piperazin-1-yl) quinazoline-4-carboxamide], the IC50 in the assay with Target C [1] and with Target C [2] was 1 to 10 µM in each case.
As to `Cc1c(O)c(-c2nc(C(=O)O)c3cc(N4CCNCC4)ccc3n2)cc2cn(C)nc12` [Compound 524, 2-(6-hydroxy-2,7-dimethylindazol-5-yl)-6-(piperazin-1-yl) quinazoline-4-carboxylic acid], the IC50 with Target C [1] and with Target C [2] was greater than 10 µM in each case.
As for `Cc1c(O)c(-c2ncc3cc(N4C[C@@H](C)N[C@@H](C)C4)ccc3n2)cc2cn(C)nc12` [Compound 525, 5-{6-[(3R,5S)-3,5-dimethylpiperazin-1-yl]quinazolin-2-yl}-2,7-dimethylindazol-6-ol], the results for the half-maximal inhibitory concentration (IC50) in the assay on Target C [1] and in the assay with Target C [2] were 1 to 10 µM and 0.1 to 1 µM, respectively.
Regarding `Cc1c(O)c(-c2ncc3nc(N4C[C@@H](C)N[C@@H](C)C4)ccc3n2)cc2cn(C)nc12` [Compound 526, 5-{6-[(3R,5S)-3,5-dimethylpiperazin-1-yl]pyrido[3,2-d]pyrimidin-2-yl}-2,7-dimethylindazol-6-ol], the IC50 (in general, the concentration that gives 50% inhibition) with Target C [1] was in the range of 1 to 10 µM; in the assay on Target C [2], 0.1 to 1 µM.
In the same order, the values of `CNC(=O)c1nc(-c2cc3cn(C)nc3c(F)c2O)nc2ccc(N3C[C@@H](C)N[C@@H](C)C3)cc12` [Compound 527, 6-[(3R,5S)-3,5-dimethylpiperazin-1-yl]-2-(7-fluoro-6-hydroxy-2-methylindazol-5-yl)-N-methylquinazoline-4-carboxamide] are 0.1 to 1 µM and 0.1 to 1 µM.
For `CNC(=O)c1nc(-c2cc3cn(C)nc3c(F)c2O)nc2ccc(N3CCC(N(C)C)CC3)cc12` [Compound 528, 6-[4-(dimethylamino)piperidin-1-yl]-2-(7-fluoro-6-hydroxy-2-methylindazol-5-yl)-N-methylquinazoline-4-carboxamide], in that order: 1 to 10 µM and 0.1 to 1 µM.
With `CNC(=O)c1nc(-c2cc3cn(C)nc3c(F)c2O)nc2ccc(N3CCN[C@@H](C)C3)cc12` [Compound 529, 2-(7-fluoro-6-hydroxy-2-methylindazol-5-yl)-N-methyl-6-[(3S)-3-methylpiperazin-1-yl]quinazoline-4-carboxamide], the values for the IC50 with Target C [1] and with Target C [2] were 1 to 10 µM and 0.1 to 1 µM, respectively.
For `CNC(=O)c1nc(-c2cc3cn(C)nc3cc2O)nc2ccc(N3CCN[C@@H](C)C3)cc12` [Compound 530, 2-(6-hydroxy-2-methylindazol-5-yl)-N-methyl-6-[(3S)-3-methylpiperazin-1-yl]quinazoline-4-carboxamide], in that order: greater than 10 µM and 0.1 to 1 µM.
In the same order, the values of `CNC(=O)c1nc(-c2cc3cn(C)nc3cc2O)nc2ccc(N3C[C@@H](C)N[C@@H](C)C3)cc12` [Compound 531, 6-[(3R,5S)-3,5-dimethylpiperazin-1-yl]-2-(6-hydroxy-2-methylindazol-5-yl)-N-methylquinazoline-4-carboxamide] are greater than 10 µM and 1 to 10 µM.
For `CNC(=O)c1nc(-c2cc3cn(C)nc3c(C)c2O)nc2ccc(N3CCNC4(CC4)C3)cc12` [Compound 532, 6-{4,7-diazaspiro[2.5]octan-7-yl}-2-(6-hydroxy-2,7-dimethylindazol-5-yl)-N-methylquinazoline-4-carboxamide], in that order: greater than 10 µM and 0.1 to 1 µM.
For the compound `CNC(=O)c1nc(-c2cc3cn(C)nc3c(C)c2O)nc2ccc(N3CCNCC3)nc12` [Compound 533, 2-(6-hydroxy-2,7-dimethylindazol-5-yl)-N-methyl-6-(piperazin-1-yl)pyrido[3,2-d]pyrimidine-4-carboxamide], the 50% inhibitory concentration (IC50) is greater than 10 µM with Target C [1] and 1 to 10 µM with Target C [2].
For `CNC(=O)c1nc(-c2cc3cn(C)nc3c(C)c2O)nc2ccc(N3C[C@@H](C)N[C@@H](C)C3)nc12` [Compound 534, 6-[(3R,5S)-3,5-dimethylpiperazin-1-yl]-2-(6-hydroxy-2,7-dimethylindazol-5-yl)-N-methylpyrido[3,2-d]pyrimidine-4-carboxamide], in that order: greater than 10 µM and 1 to 10 µM.
For `CCNC(=O)c1nc(-c2cc3cn(C)nc3c(C)c2O)nc2ccc(N3C[C@@H](C)N[C@@H](C)C3)cc12` [Compound 535, 6-[(3R,5S)-3,5-dimethylpiperazin-1-yl]-N-ethyl-2-(6-hydroxy-2,7-dimethylindazol-5-yl)quinazoline-4-carboxamide], in that order: 1 to 10 µM and 0.1 to 1 µM.
In the same order, the values of `CNC(=O)c1nc(-c2cc3cn(C)nc3c(C)c2O)nc2ccc(N3CC[C@@H](NC)C3)cc12` [Compound 536, 2-(6-hydroxy-2,7-dimethylindazol-5-yl)-N-methyl-6-[(3R)-3-(methylamino)pyrrolidin-1-yl]quinazoline-4-carboxamide] are less than 0.1 µM and less than 0.1 µM.
On to `CNC(=O)c1nc(-c2cc3cn(C)nc3c(C)c2O)nc2ccc(N3CC[C@H](NC)C3)cc12` [Compound 537, 2-(6-hydroxy-2,7-dimethylindazol-5-yl)-N-methyl-6-[(3S)-3-(methylamino)pyrrolidin-1-yl]quinazoline-4-carboxamide], for which the IC50 with Target C [1] is 0.1 to 1 µM; in the assay on Target C [2], less than 0.1 µM.
In the same order, the values of `Cc1c(O)c(-c2nc(-c3c[nH]nn3)c3cc(N4CCNCC4)ccc3n2)cc2cn(C)nc12` [Compound 538, 2,7-dimethyl-5-[6-(piperazin-1-yl)-4-(1H-1,2,3-triazol-4-yl)quinazolin-2-yl]indazol-6-ol hydrochloride] are 1 to 10 µM and 1 to 10 µM.
In the same order, the values of `Cc1c(O)c(-c2nc(C(=O)NC(C)C)c3cc(N4C[C@@H](C)N[C@@H](C)C4)ccc3n2)cc2cn(C)nc12` [Compound 539, 6-[(3R,5S)-3,5-dimethylpiperazin-1-yl]-2-(6-hydroxy-2,7-dimethylindazol-5-yl)-N-isopropylquinazoline-4-carboxamide] are 0.1 to 1 µM and less than 0.1 µM.
For `Cc1c(O)c(-c2nc(C(=O)NC3CCC3)c3cc(N4C[C@@H](C)N[C@@H](C)C4)ccc3n2)cc2cn(C)nc12` [Compound 540], in that order: greater than 10 µM and 0.1 to 1 µM.
Regarding `Cc1c(O)c(-c2nc(-c3nn[nH]n3)c3cc(N4CCNCC4)ccc3n2)cc2cn(C)nc12` [Compound 541, 2,7-dimethyl-5-[6-(piperazin-1-yl)-4-(2H-1,2,3,4-tetrazol-5-yl)quinazolin-2-yl]indazol-6-ol], the IC50 with Target C [1] is 1 to 10 µM; in the assay with Target C [2] it was greater than 10 µM.
With `C[C@@H]1CN(c2ccc3nc(-c4cc5cn(C)nc5c(F)c4O)nc(C4CC4)c3c2)C[C@H](C)N1` [Compound 542, 5-{4-cyclopropyl-6-[(3R,5S)-3,5-dimethylpiperazin-1-yl]quinazolin-2-yl}-7-fluoro-2-methylindazol-6-ol], the IC50 was greater than 10 µM in the assay with Target C [1] and 0.1 to 1 µM with Target C [2].
Regarding `CN[C@@H]1CCN(c2ccc3nc(-c4cc5cn(C)nc5c(F)c4O)nc(C4CC4)c3c2)C1` [Compound 543, 5-{4-cyclopropyl-6-[(3R)-3-(methylamino)pyrrolidin-1-yl]quinazolin-2-yl}-7-fluoro-2-methylindazol-6-ol], the IC50 with Target C [1] and with Target C [2] was 0.1 to 1 µM each time.
In the case of `Cc1cn2cc(-c3ccc4cc(N5C[C@@H](C)N[C@@H](C)C5)cc(F)c4n3)cc(F)c2n1` [Compound 544, 6-[(3R,5S)-3,5-dimethylpiperazin-1-yl]-8-fluoro-2-{8-fluoro-2-methylimidazo[1,2-a]pyridin-6-yl}quinoline], the values for the IC50 in the assay on Target C [1] and in the assay with Target C [2] were 1 to 10 µM and 0.1 to 1 µM, respectively.
For `CNC(=O)c1nc(-c2cc3cn(C)nc3c(C)c2O)nc2ccc(N3C[C@H](C)N[C@@H](C)C3)cc12` [Compound 652, 6-[(3S,5S)-3,5-dimethylpiperazin-1-yl]-2-(6-hydroxy-2,7-dimethylindazol-5-yl)-N-methylquinazoline-4-carboxamide], in that order: greater than 10 µM and 0.1 to 1 µM.
For `Cc1c(O)c(-c2ncc3cc(N4C[C@H](C)N[C@@H](C)C4)ccc3n2)cc2cn(C)nc12` [Compound 660, 5-{6-[(3S,5S)-3,5-dimethylpiperazin-1-yl]quinazolin-2-yl}-2,7-dimethylindazol-6-ol], in that order: 1 to 10 µM and 0.1 to 1 µM.
For the compound `CNC(=O)c1nc(-c2cc3cn(C)nc3c(C)c2O)nc2ccc(N3CCC(N4CCC4)CC3)cc12` [Compound 706], the IC50 in the assay with Target C [1] was greater than 10 µM; with Target C [2], 0.1 to 1 µM.
For the compound `C[C@@H]1CN(c2ccc3nc(-c4cc5cn(C)nc5c(F)c4O)nc(C#N)c3c2)C[C@H](C)N1` [Compound 707, 6-[(3R,5S)-3,5-dimethylpiperazin-1-yl]-2-(7-fluoro-6-hydroxy-2-methylindazol-5-yl) quinazoline-4-carbonitrile], the IC50 in the assay on Target C [1] and with Target C [2] was 0.1 to 1 µM in each case.
On to `C[C@@H]1CN(c2ccc3nc(-c4cc5cn(C)nc5c(F)c4O)nc(C(N)=O)c3c2)C[C@H](C)N1` [Compound 712, 6-[(3R,5S)-3,5-dimethylpiperazin-1-yl]-2-(7-fluoro-6-hydroxy-2-methylindazol-5-yl) quinazoline-4-carboxamide], for which the half-inhibitory concentration (IC50) was greater than 10 µM in the assay with Target C [1] and 1 to 10 µM with Target C [2].
In the same order, the values of `CC(=O)c1nc(-c2cc3cn(C)nc3c(F)c2O)nc2ccc(N3C[C@@H](C)N[C@@H](C)C3)cc12` [Compound 717, 1-{6-[(3R,5S)-3,5-dimethylpiperazin-1-yl]-2-(7-fluoro-6-hydroxy-2-methylindazol-5-yl)quinazolin-4-yl}ethanone] are 0.1 to 1 µM and 0.1 to 1 µM.
